Results from patent US8487108B2, “Piperidinyl carbamate intermediates for the synthesis of aspartic protease inhibitors” (Vitae Pharmaceuticals, Inc., priority 2005, dated 2013).

Molecular target: T1, trypsin-activated recombinant human renin (Homo sapiens, UniProt P00797)
T1 sequence (P00797 67-406): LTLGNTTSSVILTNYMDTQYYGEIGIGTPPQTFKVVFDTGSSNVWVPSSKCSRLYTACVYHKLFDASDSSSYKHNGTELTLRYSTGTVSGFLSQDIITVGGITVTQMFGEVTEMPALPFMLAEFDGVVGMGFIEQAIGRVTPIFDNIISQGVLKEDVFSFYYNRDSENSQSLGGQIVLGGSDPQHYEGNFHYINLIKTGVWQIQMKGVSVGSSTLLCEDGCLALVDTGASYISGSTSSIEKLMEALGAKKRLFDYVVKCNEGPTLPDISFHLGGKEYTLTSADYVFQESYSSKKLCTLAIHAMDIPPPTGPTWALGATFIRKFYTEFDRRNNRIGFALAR
Assay: Renin fluorescence assay (internally quenched peptide substrate)
Assay type: biochemical
Settings: compounds I*
Description: The sequence of this peptide corresponds to the sequence of human angiotensinogen. The following test protocol can be used. All reactions are carried out in a flat bottom white opaque microtiter plate. A 4 μL aliquot of 400 μM renin substrate (DABCYL-γ-[…]) in 192 μL assay buffer (50 mM BES, 150 mM NaCl, 0.25 mg/mL bovine serum albumin, pH7.0) is added to 4 μL of test compound in DMSO at various concentrations ranging from 10 μM to 1 nM final concentrations. Next, 100 μL of trypsin-activated recombinant human renin (final enzyme concentration of 0.2-2 nM) in assay buffer is added, and the solution is mixed by pipetting. The increase in fluorescence at 495 nm (excitation at 340 nm) is measured for 60-360 minutes at rt using a Perkin-Elmer Fusion microplate reader. The slope of a linear portion of the plot of fluorescence-increase as a function of time is then determined, and the rate is used for calculating percent inhibition in relation to uninhibited control. […] (Wang G. T. et al. Anal. Biochem. 1993, 210, 351; Nakamura, N. et al. J. Biochem. (Tokyo) 1991, 109, 741; Murakami, K. et al. Anal Biochem. 1981, 110, 232).

| Compound | IC50 [nM] |
| --- | --- |
| CNC[C@H](CN1CCCCC1=O)NC(=O)N1CCC[C@@H]([C@@H](OCCNC(=O)OC)c2cccc(F)c2)C1 [I*-46a, methyl 2-((R)-(3-fluorophenyl)((R)-1-((R)-1-(methylamino)-3-(2-oxopiperidin-1-yl)propan-2-ylcarbamoyl)piperidin-3-yl)methoxy)ethylcarbamate] | > 50 |
| CNC[C@H](CC1CCOCC1)NC(=O)N1CCC[C@@H]([C@@H](OCCNC(=O)OC)c2cc(C)ccc2F)C1 [I*-49a, methyl 2-((R)-(2-fluoro-5-methylphenyl)((R)-1-((S)-1-(methylamino)-3-(tetrahydro-2H-pyran-4-yl)propan-2-ylcarbamoyl)piperidin-3-yl)methoxy)ethylcarbamate] | > 50 |
| CNC[C@H](CC1CCC(O)CC1)NC(=O)N1CCC[C@@H]([C@@H](OCCNC(=O)OC)c2cccc(F)c2)C1 (stereo partly drawn) [I*-51a, methyl 2-((R)-(3-fluorophenyl)((R)-1-((S)-1-(4-hydroxycyclohexyl)-3-(methylamino)propan-2-ylcarbamoyl)piperidin-3-yl)methoxy)ethylcarbamate] | > 50 |
| CNC[C@@H](NC(=O)N1CCC[C@@H]([C@@H](OCCNC(=O)OC)c2cc(F)ccc2C)C1)[C@@H](O)C1CCCC1 [I*-53a, methyl 2-((R)-((R)-1-((1S,2R)-1-cyclopentyl-1-hydroxy-3-(methylamino)propan-2-ylcarbamoyl)piperidin-3-yl)(5-fluoro-2-methylphenyl)methoxy)ethylcarbamate] | < 20 |
| CNCC(CC1CCCOC1)NC(=O)N1CCCC(C(O)(CCCNC(=O)OC)c2cccc(F)c2)C1 [I*-54a, methyl (S)-4-(3-fluorophenyl)-4-hydroxy-4-((3R)-1-((S)-1-(methylamino)-3-(tetrahydro-2H-pyran-3-yl)propan-2-ylcarbamoyl)piperidin-3-yl)butylcarbamate] | < 50 |
| CNC[C@H](C[C@H]1CCCOC1)NC(=O)N1CCCC[C@@H]([C@@H](OCCNC(=O)OC)c2cccc(F)c2)C1 [I*-56a, methyl 2-((R)-(3-fluorophenyl)((R)-1-((S)-1-(methylamino)-3-((R)-tetrahydro-2H-pyran-3-yl)propan-2-ylcarbamoyl)azepan-3-yl)methoxy)ethylcarbamate] | < 10 |
| CNC[C@H](C[C@H]1CCCCOC1)NC(=O)N1CCC[C@@H]([C@@H](OCCNC(=O)OC)c2ccccc2F)C1 [I*-57a, methyl 2-((1R)-(2-fluorophenyl)((3R)-1-(1-(methylamino)-3-((R)-oxepan-3-yl)propan-2-ylcarbamoyl)piperidin-3-yl)methoxy)ethylcarbamate] | < 10 |
| COC(=O)NCCO[C@@H](c1cc(F)ccc1C)[C@@H]1CCCN(C(=O)NC[C@@H](N)C[C@H]2CCCCOC2)C1 [I*-58a, methyl 2-((R)-((R)-1-((S)-2-amino-3-((R)-oxepan-3-yl)propylcarbamoyl)piperidin-3-yl)(5-fluoro-2-methylphenyl)methoxy)ethylcarbamate] | < 10 |
| COC(=O)NCCO[C@@H](c1cccc(Cl)c1)[C@@H]1CCCN(C(=O)N[C@](C)(CN)CC2CCCCC2)C1 [I*-59a, methyl 2-((R)-((R)-1-((S)-1-amino-3-cyclohexyl-2-methylpropan-2-ylcarbamoyl)piperidin-3-yl)(3-chlorophenyl)methoxy)ethylcarbamate] | < 10 |
| CCNC(=O)CO[C@@H](c1cccc(Cl)c1)[C@@H]1CCCN(C(=O)N[C@H](CNC)C[C@H]2CCCCOC2)C1 [I*-61a, (R)-3-((R)-(3-chlorophenyl)(2-(ethylamino)-2-oxoethoxy)methyl)-N-((2S)-1-(methylamino)-3-((R)-oxepan-3-yl)propan-2-yl)piperidine-1-carboxamide] | < 10 |
| CNC[C@H](CC1CCCCC1)NC(=O)N1CCC[C@@H]([C@@H](OCCNC(=O)OC)c2ccc(F)c(F)c2)C1 [I*-65a, methyl 2-((R)-((R)-1-((S)-1-cyclohexyl-3-(methylamino)propan-2-ylcarbamoyl)piperidin-3-yl)(3,4-difluorophenyl)methoxy)ethylcarbamate] | < 10 |

Next, values leading:

| IC50 [nM] | Compound |
| --- | --- |
| < 10 | CNC[C@H](CC1CCCOCC1)NC(=O)N1CCC[C@@H]([C@@H](OCCNC(=O)OC)c2cccc(F)c2)C1 (stereo partly drawn) [I*-47a, methyl 2-((R)-(3-fluorophenyl)((3R)-1-((S)-1-(methylamino)-3-(oxepan-4-yl)propan-2-ylcarbamoyl)piperidin-3-yl)methoxy)ethylcarbamate] |
| < 10 | CNC[C@@H](NC(=O)N1CCC[C@@H]([C@@H](OCCNC(=O)OC)c2cccc(F)c2)C1)[C@@H](O)C1CCCCC1 [I*-48a, methyl 2-((R)-((R)-1-((1S,2R)-1-cyclohexyl-1-hydroxy-3-(methylamino)propan-2-ylcarbamoyl)piperidin-3-yl)(3-fluorophenyl)methoxy)ethylcarbamate] |
| < 10 | CNC[C@H](CC1CCOCC1)NC(=O)N1CCC[C@@H]([C@@H](OCCNC(=O)OC)c2cc(F)ccc2C)C1 [I*-50a, methyl 2-((R)-(5-fluoro-2-methylphenyl)((R)-1-((S)-1-(methylamino)-3-(tetrahydro-2H-pyran-4-yl)propan-2-ylcarbamoyl)piperidin-3-yl)methoxy)ethylcarbamate] |
| < 10 | CNC[C@H](CC1CCOCC1)NC(=O)N1CCC[C@@H]([C@@H](OCCNC(=O)OC)c2cc(C)cc(F)c2)C1 [I*-52a, methyl 2-((R)-(3-fluoro-5-methylphenyl)((R)-1-((S)-1-(methylamino)-3-(tetrahydro-2H-pyran-4-yl)propan-2-ylcarbamoyl)piperidin-3-yl)methoxy)ethylcarbamate] |
| < 1 | CNC[C@H](C[C@H]1CCCCOC1)NC(=O)N1CCC[C@@H]([C@@H](OCCNC(=O)OC)c2cccc(F)c2)C1 [I*-55a, methyl 2-((R)-(3-fluorophenyl)((R)-1-((S)-1-(methylamino)-3-((R)-oxepan-3-yl)propan-2-ylcarbamoyl)piperidin-3-yl)methoxy)ethylcarbamate] |
| < 1 | CNC[C@H](CC1CCCC1)NC(=O)N1CCC[C@@H]([C@@H](OCCNC(=O)OC)c2cc(Cl)ccc2C)C1 [I*-60a, methyl 2-((R)-(5-chloro-2-methylphenyl)((R)-1-((S)-1-cyclopentyl-3-(methylamino)propan-2-ylcarbamoyl)piperidin-3-yl)methoxy)ethylcarbamate] |
| < 1 | CNC[C@H](CC1CCCCC1)NC(=O)N1CCC[C@@H]([C@@H](OCCNC(=O)OC)c2cc(F)ccc2F)C1 [I*-63a, methyl 2-((R)-((R)-1-((S)-1-cyclohexyl-3-(methylamino)propan-2-ylcarbamoyl)piperidin-3-yl)(2,5-difluorophenyl)methoxy)ethylcarbamate] |
| < 1 | CNC[C@H](CC1CCCCC1)NC(=O)N1CCC[C@@H]([C@@H](OCCNC(=O)OC)c2cc(F)cc(F)c2)C1 [I*-64a, methyl 2-((R)-((R)-1-((S)-1-cyclohexyl-3-(methylamino)propan-2-ylcarbamoyl)piperidin-3-yl)(3,5-difluorophenyl)methoxy)ethylcarbamate] |
